Laboratory results published in ChEMBL document CHEMBL5241080, “Quinoline anticancer agents active on DNA and DNA-interacting proteins: From classical to emerging therapeutic targets” (Eur J Med Chem, 2021).
One block for each compound: values may come before it.

How the values were obtained:
[1] = test system: CAKI-1; assay: Antiproliferative activity against human CAKI-1 cells assessed as inhibition of cell growth incubated for 72 hrs by MTT assay; format: functional, cell-based; details: CAKI-1, 72 h
[2] = test system: MCF7; assay: Antiproliferative activity against human MCF7 cells assessed as inhibition of cell growth incubated for 72 hrs by MTT assay; format: functional, cell-based; details: MCF7, 72 h
[3] = test system: U-266; assay: Antiproliferative activity against human U-266 cells; format: functional, cell-based
[4] = molecular target: Protein deacetylase HDAC6 (Homo sapiens, UniProt Q9UBN7); assay: Inhibition of HDAC6 (unknown origin)
Protein deacetylase HDAC6, sequence (Q9UBN7 whole entry): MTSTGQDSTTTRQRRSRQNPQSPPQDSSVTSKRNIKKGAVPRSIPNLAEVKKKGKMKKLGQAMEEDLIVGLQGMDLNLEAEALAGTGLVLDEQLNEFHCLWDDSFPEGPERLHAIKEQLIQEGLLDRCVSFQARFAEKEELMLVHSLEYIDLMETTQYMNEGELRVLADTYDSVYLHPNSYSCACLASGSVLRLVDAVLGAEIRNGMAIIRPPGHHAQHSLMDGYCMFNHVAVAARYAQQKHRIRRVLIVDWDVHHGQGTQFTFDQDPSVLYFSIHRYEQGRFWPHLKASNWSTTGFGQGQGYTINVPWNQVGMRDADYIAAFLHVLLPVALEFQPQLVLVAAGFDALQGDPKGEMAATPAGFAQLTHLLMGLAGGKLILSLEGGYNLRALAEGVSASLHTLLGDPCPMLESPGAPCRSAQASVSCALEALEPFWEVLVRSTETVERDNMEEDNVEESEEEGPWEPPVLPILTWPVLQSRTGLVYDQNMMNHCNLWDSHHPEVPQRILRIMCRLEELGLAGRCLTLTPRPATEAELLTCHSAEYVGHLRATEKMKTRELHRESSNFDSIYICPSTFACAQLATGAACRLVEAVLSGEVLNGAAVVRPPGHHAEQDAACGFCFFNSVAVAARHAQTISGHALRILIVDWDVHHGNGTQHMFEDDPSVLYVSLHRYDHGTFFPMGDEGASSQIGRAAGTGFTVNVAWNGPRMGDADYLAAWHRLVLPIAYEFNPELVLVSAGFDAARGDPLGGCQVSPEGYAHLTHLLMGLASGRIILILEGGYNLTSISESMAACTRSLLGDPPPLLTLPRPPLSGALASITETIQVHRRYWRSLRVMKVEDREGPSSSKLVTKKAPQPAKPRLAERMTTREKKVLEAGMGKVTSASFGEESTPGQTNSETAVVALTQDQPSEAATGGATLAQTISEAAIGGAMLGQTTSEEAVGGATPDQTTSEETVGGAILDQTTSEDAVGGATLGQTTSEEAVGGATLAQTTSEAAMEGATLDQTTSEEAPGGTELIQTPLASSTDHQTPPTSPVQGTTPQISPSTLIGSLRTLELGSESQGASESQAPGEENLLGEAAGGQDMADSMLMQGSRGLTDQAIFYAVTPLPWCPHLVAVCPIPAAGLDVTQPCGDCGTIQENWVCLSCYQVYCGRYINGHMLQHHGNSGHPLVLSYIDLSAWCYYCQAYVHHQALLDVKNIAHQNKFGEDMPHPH

[5] = test system: NCI-H929; assay: Antiproliferative activity against human NCI-H929 cells; format: functional, cell-based
[6] = test system: RPMI-8226; assay: Antiproliferative activity against human RPMI-8226 cells; format: functional, cell-based
[7] = test system: A549; assay: Antiproliferative activity against human A549 cells; format: functional, cell-based
[8] = molecular target: T1, DNA topoisomerase 1 (Homo sapiens, UniProt P11387); assay: Inhibition of human topoisomerase 1 incubated for 2 hrs by ELISA analysis
T1 sequence (P11387 whole entry): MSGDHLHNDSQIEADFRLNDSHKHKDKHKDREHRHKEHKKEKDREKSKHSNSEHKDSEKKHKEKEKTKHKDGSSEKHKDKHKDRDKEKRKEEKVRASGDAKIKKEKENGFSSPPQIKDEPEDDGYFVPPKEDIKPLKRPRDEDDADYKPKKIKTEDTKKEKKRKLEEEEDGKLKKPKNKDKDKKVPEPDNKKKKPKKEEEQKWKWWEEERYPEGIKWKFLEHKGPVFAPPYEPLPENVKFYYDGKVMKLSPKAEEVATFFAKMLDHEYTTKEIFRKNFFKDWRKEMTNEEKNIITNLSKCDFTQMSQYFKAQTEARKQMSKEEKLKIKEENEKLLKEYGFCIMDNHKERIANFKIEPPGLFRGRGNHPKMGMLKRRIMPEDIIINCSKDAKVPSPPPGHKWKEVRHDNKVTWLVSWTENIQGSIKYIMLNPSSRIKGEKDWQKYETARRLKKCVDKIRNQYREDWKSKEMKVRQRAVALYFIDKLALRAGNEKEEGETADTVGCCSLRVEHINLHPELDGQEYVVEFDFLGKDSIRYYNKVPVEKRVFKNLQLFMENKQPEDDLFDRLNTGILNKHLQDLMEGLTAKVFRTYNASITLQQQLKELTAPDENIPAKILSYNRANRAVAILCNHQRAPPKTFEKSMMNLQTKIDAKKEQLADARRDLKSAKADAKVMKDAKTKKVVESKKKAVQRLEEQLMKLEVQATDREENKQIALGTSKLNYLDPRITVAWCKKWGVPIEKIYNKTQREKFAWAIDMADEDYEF

[9] = test system: HL-60; assay: Cytotoxicity against human HL-60 cells incubated for 24 hrs by MTT assay; format: functional
[10] = test system: SR; assay: Cytotoxicity against human SR cells incubated for 24 hrs by MTT assay; format: functional
[11] = test system: MDA-MB-435; assay: Cytotoxicity against human MDA-MB-435 cells incubated for 24 hrs by MTT assay; format: functional
[12] = test system: T-24; assay: Cytotoxicity against human T24 cells; format: functional, cell-based
[13] = test system: HepG2; assay: Cytotoxicity against human HepG2 cells; format: functional, cell-based
[14] = test system: NCI-H460; assay: Cytotoxicity against human NCI-H460 cells; format: functional, cell-based
[15] = test system: MGC-803; assay: Cytotoxicity against human MGC-803 cells; format: functional, cell-based
[16] = test system: K-562R; assay: Cytotoxicity against human K-562R cells by MTT assay; format: functional
[17] = Cytotoxicity against human CAL1 cells by MTT assay; format: functional
[18] = test system: SW-620; assay: Cytotoxicity against human SW620 cells by MTT assay; format: functional
[19] = test system: MCF7; assay: Cytotoxicity against human MCF7 cells by MTT assay; format: functional
[20] = test system: SW480; assay: Cytotoxicity against human SW480 cells by MTT assay; format: functional
[21] = test system: HeLa; assay: Cytotoxicity against human HeLa cells by MTT assay; format: functional
[22] = test system: C-33-A; assay: Cytotoxicity against human C-33-A cells by MTT assay; format: functional
[23] = test system: MDA-MB-231; assay: Cytotoxicity against human MDA-MB-231 cells at 1 uM by MTT assay; format: functional
[24] = molecular target: Hepatocyte growth factor receptor (Homo sapiens, UniProt P08581); assay: Inhibition of c-MET (unknown origin)
Hepatocyte growth factor receptor, sequence (P08581 whole entry): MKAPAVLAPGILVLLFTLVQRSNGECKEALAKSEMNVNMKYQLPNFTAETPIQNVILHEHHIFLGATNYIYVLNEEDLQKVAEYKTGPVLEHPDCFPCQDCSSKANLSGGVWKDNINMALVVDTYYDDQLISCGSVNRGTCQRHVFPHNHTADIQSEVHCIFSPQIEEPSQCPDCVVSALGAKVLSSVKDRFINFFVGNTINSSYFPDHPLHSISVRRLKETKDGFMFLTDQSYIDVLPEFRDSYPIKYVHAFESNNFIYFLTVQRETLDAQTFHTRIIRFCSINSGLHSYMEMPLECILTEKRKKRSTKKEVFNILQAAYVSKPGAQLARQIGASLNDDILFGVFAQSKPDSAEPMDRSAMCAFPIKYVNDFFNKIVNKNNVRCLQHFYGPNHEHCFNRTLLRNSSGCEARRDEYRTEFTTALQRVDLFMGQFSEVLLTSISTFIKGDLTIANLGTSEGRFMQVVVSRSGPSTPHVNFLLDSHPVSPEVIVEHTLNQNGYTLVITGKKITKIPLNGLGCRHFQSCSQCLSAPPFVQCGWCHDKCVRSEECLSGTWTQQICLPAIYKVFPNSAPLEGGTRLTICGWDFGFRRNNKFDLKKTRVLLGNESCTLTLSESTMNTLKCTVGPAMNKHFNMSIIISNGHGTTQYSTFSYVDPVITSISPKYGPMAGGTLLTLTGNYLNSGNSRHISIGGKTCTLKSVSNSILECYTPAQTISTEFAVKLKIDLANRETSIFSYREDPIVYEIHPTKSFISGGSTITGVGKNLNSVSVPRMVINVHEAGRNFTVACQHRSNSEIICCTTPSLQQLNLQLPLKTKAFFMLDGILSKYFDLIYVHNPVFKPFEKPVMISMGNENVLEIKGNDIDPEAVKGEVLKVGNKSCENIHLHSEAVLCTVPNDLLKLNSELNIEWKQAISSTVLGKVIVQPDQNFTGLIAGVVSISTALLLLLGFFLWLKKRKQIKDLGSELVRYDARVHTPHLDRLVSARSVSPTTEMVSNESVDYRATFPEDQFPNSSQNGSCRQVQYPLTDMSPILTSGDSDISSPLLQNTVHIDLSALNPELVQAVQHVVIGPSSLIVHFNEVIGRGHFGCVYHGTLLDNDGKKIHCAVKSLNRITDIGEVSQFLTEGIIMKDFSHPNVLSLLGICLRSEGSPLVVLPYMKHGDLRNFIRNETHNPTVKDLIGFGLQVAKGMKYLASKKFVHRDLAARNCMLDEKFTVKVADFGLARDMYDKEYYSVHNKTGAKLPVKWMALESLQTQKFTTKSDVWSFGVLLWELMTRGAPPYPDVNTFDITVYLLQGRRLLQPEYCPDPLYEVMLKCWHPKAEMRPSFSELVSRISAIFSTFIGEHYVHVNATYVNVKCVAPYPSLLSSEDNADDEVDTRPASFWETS

[25] = test system: A549; assay: Cytotoxicity against human A549 cells incubated for 72 hrs by MTT assay; format: functional, cell-based; details: A549, 72 h
[26] = test system: HCT-116; assay: Cytotoxicity against human HCT-116 cells assessed as inhibition of cell growth incubated for 72 hrs by MTT assay; format: functional, cell-based; details: HCT-116, 72 h
[27] = Oral bioavailability CD-1 mouse at 30 mg/kg; format: ADME, organism-based; details: in vivo
[28] = test system: HT-1080; assay: Antiproliferative activity against human HT-1080 cells; format: functional, cell-based
[29] = test system: WI-38; assay: Antiproliferative activity against human WI-38 cells; format: functional, cell-based
[30] = test system: HeLa; assay: Antiproliferative activity against human HeLa cells; format: functional, cell-based
[31] = test system: U2OS; assay: Antiproliferative activity against human U2OS cells; format: functional, cell-based
[32] = molecular target: T2, DNA (cytosine-5)-methyltransferase 3A (Homo sapiens, UniProt Q9Y6K1); assay: Inhibition of DNMT3A (unknown origin)
T2 sequence (Q9Y6K1 whole entry, looked up): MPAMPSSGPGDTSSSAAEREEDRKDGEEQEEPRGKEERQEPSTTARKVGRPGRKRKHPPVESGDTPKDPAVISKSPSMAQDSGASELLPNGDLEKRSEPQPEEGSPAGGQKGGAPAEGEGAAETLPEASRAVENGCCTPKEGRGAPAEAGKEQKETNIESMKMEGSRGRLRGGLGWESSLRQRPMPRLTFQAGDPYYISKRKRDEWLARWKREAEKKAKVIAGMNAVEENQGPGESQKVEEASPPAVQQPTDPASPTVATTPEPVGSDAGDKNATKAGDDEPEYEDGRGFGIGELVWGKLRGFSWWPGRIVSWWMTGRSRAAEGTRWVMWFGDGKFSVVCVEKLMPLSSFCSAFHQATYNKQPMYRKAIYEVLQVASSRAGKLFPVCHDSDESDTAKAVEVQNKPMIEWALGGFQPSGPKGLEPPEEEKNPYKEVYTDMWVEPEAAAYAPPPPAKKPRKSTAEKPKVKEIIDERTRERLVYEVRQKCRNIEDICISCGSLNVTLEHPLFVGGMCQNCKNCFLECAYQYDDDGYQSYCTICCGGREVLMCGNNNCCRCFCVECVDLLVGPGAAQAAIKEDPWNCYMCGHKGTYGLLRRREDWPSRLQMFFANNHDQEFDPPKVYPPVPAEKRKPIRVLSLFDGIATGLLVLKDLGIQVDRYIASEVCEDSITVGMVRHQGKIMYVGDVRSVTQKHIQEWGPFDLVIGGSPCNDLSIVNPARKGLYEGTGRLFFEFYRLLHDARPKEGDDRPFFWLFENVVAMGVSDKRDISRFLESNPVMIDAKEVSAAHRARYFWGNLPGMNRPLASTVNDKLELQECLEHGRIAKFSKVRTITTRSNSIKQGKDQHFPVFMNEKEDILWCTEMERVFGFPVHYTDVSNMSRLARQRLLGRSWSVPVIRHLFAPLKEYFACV

[33] = test system: KG-1; assay: Antiproliferative activity against human KG-1 cells; format: functional, cell-based
[34] = test system: HT-1080; assay: Antiproliferative activity against human HT-1080 cells assessed as reduction cell viability incubated for 48 hrs by MTT assay; format: functional, cell-based; details: HT-1080, 48 h
[35] = test system: M14; assay: Antiproliferative activity against human M14 cells assessed as reduction cell viability incubated for 48 hrs by MTT assay; format: functional, cell-based; details: M14, 48 h
[36] = molecular target: DNA (cytosine-5)-methyltransferase 1 (Homo sapiens, UniProt P26358); assay: Inhibition of his-tagged human DNMT1 by scintillation counter analysis
DNA (cytosine-5)-methyltransferase 1, sequence (P26358 whole entry): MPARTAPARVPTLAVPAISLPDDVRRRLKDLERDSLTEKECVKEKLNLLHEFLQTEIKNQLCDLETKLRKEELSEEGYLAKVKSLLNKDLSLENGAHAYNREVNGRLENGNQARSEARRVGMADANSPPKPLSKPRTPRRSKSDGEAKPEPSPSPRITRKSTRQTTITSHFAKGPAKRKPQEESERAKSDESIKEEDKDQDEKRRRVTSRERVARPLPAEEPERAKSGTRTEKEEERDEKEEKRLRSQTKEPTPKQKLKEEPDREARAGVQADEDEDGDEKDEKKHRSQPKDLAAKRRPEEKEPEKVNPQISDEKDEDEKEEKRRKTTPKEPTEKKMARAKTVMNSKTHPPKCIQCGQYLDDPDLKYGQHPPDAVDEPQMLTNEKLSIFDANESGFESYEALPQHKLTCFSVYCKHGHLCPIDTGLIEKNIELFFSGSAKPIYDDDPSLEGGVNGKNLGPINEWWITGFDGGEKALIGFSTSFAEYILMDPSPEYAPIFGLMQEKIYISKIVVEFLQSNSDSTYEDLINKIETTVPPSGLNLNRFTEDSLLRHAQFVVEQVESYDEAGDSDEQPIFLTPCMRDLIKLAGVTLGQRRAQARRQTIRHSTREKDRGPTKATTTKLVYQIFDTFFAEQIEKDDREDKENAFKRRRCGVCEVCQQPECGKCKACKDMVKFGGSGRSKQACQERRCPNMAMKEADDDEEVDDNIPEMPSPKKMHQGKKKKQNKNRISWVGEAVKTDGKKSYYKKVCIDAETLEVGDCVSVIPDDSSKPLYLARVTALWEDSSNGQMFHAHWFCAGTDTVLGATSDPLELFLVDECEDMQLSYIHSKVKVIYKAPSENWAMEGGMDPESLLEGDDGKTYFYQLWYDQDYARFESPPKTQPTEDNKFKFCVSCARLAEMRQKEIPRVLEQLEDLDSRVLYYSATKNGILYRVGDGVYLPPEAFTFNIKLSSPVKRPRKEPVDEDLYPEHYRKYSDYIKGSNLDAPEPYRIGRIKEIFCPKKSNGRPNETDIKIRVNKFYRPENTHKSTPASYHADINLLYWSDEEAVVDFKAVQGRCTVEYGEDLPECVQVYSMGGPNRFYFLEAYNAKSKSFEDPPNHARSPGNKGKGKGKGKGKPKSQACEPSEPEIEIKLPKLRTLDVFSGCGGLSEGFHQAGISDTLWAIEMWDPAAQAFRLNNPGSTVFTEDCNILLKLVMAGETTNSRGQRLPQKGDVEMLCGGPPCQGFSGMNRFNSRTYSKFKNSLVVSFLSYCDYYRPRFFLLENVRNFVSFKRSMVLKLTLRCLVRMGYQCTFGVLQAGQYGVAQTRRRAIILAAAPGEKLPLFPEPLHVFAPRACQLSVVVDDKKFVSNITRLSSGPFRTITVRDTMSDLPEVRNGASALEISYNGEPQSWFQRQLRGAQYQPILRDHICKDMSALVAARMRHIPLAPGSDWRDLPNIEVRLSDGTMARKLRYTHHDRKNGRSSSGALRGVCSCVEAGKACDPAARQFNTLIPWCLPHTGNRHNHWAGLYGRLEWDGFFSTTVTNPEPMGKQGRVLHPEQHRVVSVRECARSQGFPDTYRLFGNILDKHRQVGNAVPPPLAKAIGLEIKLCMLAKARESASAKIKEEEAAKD

[37] = test system: HCT-116; assay: Antiproliferative activity against human HCT-116 cells assessed as reduction cell viability incubated for 48 hrs by MTT assay; format: functional, cell-based; details: HCT-116, 48 h
[38] = test system: HL-60; assay: Antiproliferative activity against human HL-60 cells assessed as reduction cell viability incubated for 48 hrs by MTT assay; format: functional, cell-based; details: HL-60, 48 h
[39] = test system: MCF7; assay: Antiproliferative activity against human MCF7 cells assessed as reduction cell viability incubated for 48 hrs by MTT assay; format: functional, cell-based; details: MCF7, 48 h
[40] = test system: HeLa; assay: Antiproliferative activity against human HeLa cells assessed as reduction cell viability incubated for 48 hrs by MTT assay; format: functional, cell-based
[41] = molecular target: T2, DNA (cytosine-5)-methyltransferase 3A; assay: Inhibition of C-terminal biotin-labelled human DNMT3A by multilabel plate reader analysis
[42] = test system: NCI-H1299; assay: Antiproliferative activity against human NCI-H1299 cells assessed as reduction cell viability incubated for 48 hrs by MTT assay; format: functional, cell-based; details: NCI-H1299, 48 h
[43] = test system: HCT-116; assay: Antiproliferative activity against human HCT-116 cells; format: functional, cell-based
[44] = test system: MIA PaCa-2; assay: Antiproliferative activity against human MIA PaCa-2 cells; format: functional, cell-based

IC50 [24]: 0.0125 µM
Compound: COc1cc2c(Oc3ccc(NC(=O)C4CCN(c5ccc(F)cc5)C4=O)cc3)ccnc2cc1OCCCCCCC(=O)NO (centres undefined)
IC50 [25]: 1.08 µM
IC50 [26]: 0.00054 µM

bioavailability [27]: 10.9%
Compound: COc1ccc2c(c1)/C(=N\OCCN1CCCC1)c1c-2c(O)nc2ccccc12

IC50 [28]: 0.3 µM
IC50 [30]: 0.3 µM
IC50 [31]: 0.3 µM
Compound: NCCCOc1cc(NC(=O)c2cc(Cl)cc(C(=O)Nc3cc(OCCCN)c4ccccc4n3)n2)nc2ccccc12
IC50 [29]: 0.3 µM

IC50 [32]: 0.9 µM
IC50 [34]: 0.5 µM
IC50 [36]: 23 µM
IC50 [37]: 1 µM
IC50 [38]: 0.2 µM
IC50 [39]: 4.1 µM
IC50 [40]: 0.14 µM
IC50 [41]: 6 µM
IC50 [42]: 14.7 µM
Compound: O=C(Nc1ccc(Nc2ccnc3ccccc23)cc1)c1ccc(Nc2ccncc2)cc1
IC50 [33]: 0.96 µM
IC50 [35]: 0.5 µM

More lines, now with the values behind:

Compound: CC1CN(c2nc3ccccc3c3c2-c2ccc(Cl)cc2C3=O)CCN1 (centres undefined)
IC50 [1]: 1.66 µM
IC50 [2]: 2.4 µM

Compound: O=C(/C=C/c1cccc(S(=O)(=O)c2ccc3ccccc3n2)c1)NO
IC50 [3]: 40.6 µM
IC50 [4]: 0.000291 µM
IC50 [5]: 9.14 µM
IC50 [6]: 7.49 µM
IC50 [7]: 0.27 µM

Compound: N#CC1=C(N)Oc2c(ccc3ccccc23)C1c1cc2ccccc2n2nnnc12 (centres undefined)
IC50 [8]: 0.278 µM
GI50 [9]: 0.26 µM
GI50 [10]: 0.232 µM
GI50 [11]: 0.3 µM

Compound: CCCCCCOc1ccc(/C=N/Nc2cc(C)nc3ccc(Cl)cc23)cc1
IC50 [12]: 3.17 µM
IC50 [13]: 4.88 µM
IC50 [14]: 3.22 µM
IC50 [15]: 2.2 µM

Compound: CCN(CC)CCNc1nc2c(Nc3ccccc3)c3ccccc3nc2s1
GI50 [16]: 15.9 µM
GI50 [17]: 15.9 µM
GI50 [18]: 15.9 µM
GI50 [19]: 15.9 µM
GI50 [20]: 15.9 µM
GI50 [21]: 15.9 µM
GI50 [22]: 15.9 µM

Compound: O[C@@H]1[C@@H](O)[C@H](Oc2ccc(O[C@@H]3O[C@H](COc4cccc5cccnc45)[C@@H](O)[C@H](O)[C@H]3O)cc2)O[C@H](COc2cccc3cccnc23)[C@H]1O
Activity [23]: 34.9%

Compound: CCN(CC)CCOC(=O)c1ccc2c(c1)C1C(C(=O)c3ccccc3N1CCN(CC)CC)N2CCN(CC)CC (centres undefined)
IC50 [43]: < 10 µM

Compound: CCN(CC)CCCNc1ccc2c(c1)[nH]c1c2c[n+](C)c2ccc(NCCCN(CC)CC)cc12
IC50 [44]: 0.22 µM
